We go through one compound from patent US20090253709A1 (NATIONAL DEFENSE MEDICAL CENTER, priority 2008, published 2009).

One data set deals with BJ1. Put plainly: MTT assay in BJ1 cells. The class given is cell-based. The protocol: (§1) A total of 2×10^3 […] cells were seeded in the 96-well cell culture plate, and incubated with DMEM (GIBCO®)/glucose mixture and Medium 199 (GIBCO®)/10% FBS/1 mM sodium pyruvate (GIBCO®)/4 mM L-glutamine (GIBCO®) mixture at a ratio of 4:1 at 37° C. for 24 hours. […] After 48 hours of drug treatment, the cultured medium were collected for performing the analysis of SEAP activity. The cells were washed with 1×PBS once immediately, and the MTT assay was performed to compare the compounds with the relative toxicity or the influence to the proliferation and activity. Mitochondria is the place for cellular respiration, and there are many reductive reactions catalyzed by dehydrogenases. MTT is a water-soluble yellow compound, and the […] will be formed after reduction. This crystal can be dissolved in the organic solvent, and has high absorbance at the wavelength of 570 nm. The higher cellular activity or more cell numbers, the more generated crystal violets. Therefore, the cellular activity and cell number can be obtained by the MTT assay. MTT solution was prepared by dissolving MTT powder in PBS solution to achieve 5 mg/ml, filtrated and stored at 4° C. Lysis buffer contained 20% (w/v) of SDS in 50% of N,N-dimethylformamide (DMF, Riedel-deHaën). After the cells were incubated in the 96-well culture plate, the original medium was discarded, 100 μl of the fresh serum-free medium per well and 25 μl of MTT solution per well were added in respectively, and the cells were further incubated in the CO2 incubator at 37° C. for 4 hours. Then, 100 μl of lysis buffer per well was added in and incubated overnight in the CO2 incubator at 37° C. The absorbance at 570 nm was determined by the ELISA reader.
In general terms: Tetrazolium assays rely on reduction of a dye to a coloured formazan, in cell work by metabolically active cells.

The subject of the next data set is H1299. Put plainly: MTT assay in H1299 cells. Format: cell-based. The protocol: as §1, with “H1299 is a non-small cell lung cancer cell line with telomerase activity. The cell extract of H1299 cell lines can be used for selecting the telomerase activity inhibitors in vitro and the telomerase activity-inhibited substances in vivo. H1299 cell line was incubated with RPMI 1640 medium supplemented with 10% of fetal bovine serum (FBS). A total” for “A total”, “ELISA reader. The selection of telomerase inhibitors of the anthraquinone compounds provided in the present invention was performed by the […]-driven SEAP system. SEAP is the communication gene in this drug selection model. The SEAP inhibition was shown as follows. […] Subsequently, the linear slope of absorbance to the measuring time was calculated, and the variance of absorbance at 405 nm per minute was represented and compared with the SEAP-producing result of drug-untreated H1299 cells. In addition, the influence of the cell-treated drug solution to the cellular proliferation and the drug toxicity to the cells were considered, and the cellular growth was evaluated by the MTT assay. The drug-treated cells were analyzed by the SEAP assay and the data analysis of MTT assay at the same time. Both results were compared so as to delete the influence of cell number or the activity to SEAP, and the dose-dependent phenomenon could be anticipated in the range of drug concentration designed by the laboratory. […] Since the chemically-synthetic drugs have colors thereon, the SEAP value of drug-treatment without cells was also determined to be the background value which was deducted while treating with the drugs. The candidate drug for inhibiting telomerase on the hTERT gene expression level was evaluated and anticipated.” for “ELISA reader.”

Molecules are shown by their SMILES.

As for `O=C1c2ccc(NC(=O)C3CCCC3)cc2C(=O)c2cc(NC(=O)C3CCCC3)ccc21` [Compound 33, 2,7-Bis(cyclopentanecarbonamido)anthraquinone], the viability (usually a per cent measure of how many cells are alive, often set against a control) in the data set on BJ1 (1 µM) was found to be 77 ± 1%; with BJ1 (10 µM), 68 ± 1%; with BJ1 (100 µM), 58 ± 1%; in the data set with H1299 (1 µM), 91 ± 12%; with H1299 (10 µM), 77 ± 6%; in the data set on H1299 (100 µM) it was 42 ± 12%.
